Test results published in patent US8815946B2, “Inhibition of proliferation and fibrotic response of activated corneal stromal cells” (University of Pittsburgh—of the Commonwealth System of …, priority 2008, dated 2014).

Tests used:
α-SMA = experiment: Western blot analyses of α-SMA, human corneal stromal cells; assay type: cell-based
Protocol: (§1) FIG. 5. Western blot analyses of α-SMA. Human corneal stromal cells in P2 growing in DMEM/F12 with 10% FBS were subcultured into 60 mm tissue culture dishes. After 24 hrs of incubation, the media were replaced with DMEM/F12 medium containing 1% FBS and TGF-β1 with or without (control) different concentrations of EP as indicated and incubated for two and four days (media were changed every 24 hours). The cells were extracted in RIPA buffer and the extracts containing 5 μg of total proteins were loaded per lane for Western blot analysis.
(§2) Keratocytes or fibroblasts grown under different culture conditions were extracted in RIPA buffer (9.1 mM dibasic sodium phosphate, 1.7 mM monobasic sodium phosphate, 150 mM NaCl, pH, 7.4, 1% Nonidet P-40, 0.5% sodium deoxycholate, 0.1% SDS, 0.03 TIU/mL aprotinin, 1 mM sodium orthovanadate, and 100 μg/mL phenylmethylsulfonyl fluoride (PMSF)). Aliquots of cell extracts containing 50 or 100 μg protein were subjected to SDS-PAGE. […] Immunoreactive bands were detected using chemiluminescence Western chemiluminescence reagents. […]

cellular fibronectin = experiment: Western blot analyses of cellular fibronectin, human corneal stromal cells; assay type: cell-based; details: TGF-β1, two and four days
Protocol: as §1, with “7.” for “5.”, “cellular fibronectin.” for “α-SMA.”, “different EP” for “different”, “concentrations” for “concentrations of EP”
as §2

cornea = experiment: Mouse corneal wound healing and LPS inflammation model, confocal microscopy of corneal thickness and morphology; assay type: in vivo, Mus musculus strain C57
Excerpt: (§3) A mouse model of corneal wound healing and inflammation induced by lipopolysacharide (LPS) was used to test the effect of EP. Khatari et al., Invest. Opthalmol. Vis. Sci. (2002) 43:2278-2284. Briefly, mice (Mus musculus strain C57, age approx. 2 months) were obtained from Charles River Laboratories in accordance with institutional protocols and divided into the following treatment groups (with 3 samples in each group):
(§4) Prior to wounding, all mice were anesthetized with an intraperitoneal injection of 50 mg/kg ketamine with 5 mg/kg xylazine. Topical anesthesia was further achieved with an additional 1 drop of 0.5% proparacaine per eye. Once the animal was sufficiently anesthetized, a corneal wound was constructed in each eye using a sterile 26-gauge needle that penetrated the epithelium and the superficial layers of the stroma. This linear scratch extended from the medial to lateral canthus (FIG. 12). 10 μg of the bacterial super-antigen LPS (Pseudomonas aeruginosa lipopolysaccharide, Sigma) was applied to the wound using a 10 μl pipette and allowed to penetrate the cornea for 5 minutes. Addition of bacterial endotoxin ensured a robust inflammatory response.
The wound was then washed with phosphate buffered saline (PBS/non-pyrogenic dH2O). Following the wash, the EP treatment groups received a 10 μl drop of 5% EP in PBS buffered to physiological pH with HEPES while the control group received PBS alone. Drops were applied to the corneal wound using a pipette and the mice were held by hand in such a way as to retain the drops on the eye for approximately 2 minutes. The delivery and concentration of EP was determined according to Devamanoharan et al. (1999); 200(1-2):103-09. […] Considering this quick absorption with the elimination half-life of EP, which is approximately 90 minutes, EP (500 mM) was applied every 90 minutes over the span of 12 hours during each day, followed by 12 hours of treatment overnight.
Animals were sacrificed and eyes harvested for analysis at 1 and 2 days post-wounding. After sacrificing, but prior to harvesting, eyes were imaged using the NIDEK CONFOSCAN 3® confocal microscope to analyze the morphology of the intact cornea. The images were later reconstructed into three-dimensional images in order to observe gross morphology, measure corneal thickness and light scattering which indicate edema and hypercellularity respectively.

GR-1 neutrophils = experiment: Mouse corneal wound model, FACS with neutrophil marker GR-1; assay type: in vivo, Mus musculus strain C57; details: day 2 post-wounding
Excerpt: as §3, §4
The wound was then washed with phosphate buffered saline (PBS/non-pyrogenic dH2O). […] The delivery and concentration of EP was determined according to Devamanoharan et al. (1999); 200(1-2):103-09. […]

Ki67 = Ki67 staining of activated rabbit corneal keratocytes; assay type: cell-based; details: bFGF (40 ng/ml)+HS (5 μg/ml), 15 mM EP, two days
Protocol: FIGS. 18A-18B. Rabbit corneal keratocytes were activated with bFGF (40 ng/ml)+HS (5 μg/ml) without EP (FIG. 18A) or with 15 mM EP (FIG. 18B) and after two days the cells were triple stained with anti-Ki67 antibodies (yellow), phalloidin (red, actin filaments) and DAPI (blue, nucleus).
As described in Example 1, corneal stromal cells were isolated from rabbit corneas and cultured using the same procedures. The keratocytes in serum free media were treated with b-FGF (40 ng/ml)+HS (5 μg/ml) with or without 15 mM EP or 1, 2.5 or 5 mM following EP derivatives: 2-oxopropionic acid 3-methoxyphenyl ester, 2-oxopropionic acid 2-ethoxyethyl ester, 2-oxopropionic acid 2-chloroethyl ester, 2-oxopropionic acid isopropyl ester, 2-oxopropionic acid butyl ester, 2-oxopropionic acid p-tolyl ester, 2-oxopropionic acid tert-butyl ester. Two days following the treatments, the cells were fixed and stained for Ki67 (a nuclear antigen expressed during the G1/S or S phase of the cell cycle) as described supra. The relative levels of the expression of specific proteins were analyzed by Western blot analyses of the cell lysates as described supra.

[1] = cited from earlier work
[2] = 1 day post-wounding, topical 5% EP every 90 minutes

Compound: CCOC(=O)C(C)=O [ethyl pyruvate]
- EP concentration with highest downregulation of α-SMA (α-SMA; TGF-β1): 20 mM
- TGF-β1 induced expression of α-SMA (Western blot) (α-SMA; two and four days, concentration dependent): down-regulated
- downregulation of fibronectin by Western blot of cell extracts (including the matrix) (cellular fibronectin): confirmed
- light scattering within the stromal layer (qualitative) (cornea; 1 day post-wounding): dark and quiet stroma
- stromal thickness (cornea; [2]): 89-100 μm
- total corneal thickness (cornea; [2]): 194-207 μm
- corneal morphology / light scattering (qualitative) (cornea; 2 days post-wounding): normal in morphology
- stromal thickness (cornea; 2 days post-wounding): 80-85 μm
- total corneal thickness (cornea; 2 days post-wounding): 142-154 μm
- neutrophils (GR-1) by FACS (GR-1 neutrophils): 61.00±42.53
- Ki67 positive cells (staining, qualitative) (Ki67): only a few Ki67 positive cells
- time to diffuse into the aqueous humor ([1]; applied on the surface of the eye): ≤ 15 min
- entry into the anterior chamber ([1]; diffuses through conjunctival tissue or into corneal stroma): within minutes
- elimination half-life ([1]; in vivo): approximately 90 minutes
